According to patent US8367086B1, “Process and product for inhibiting or preventing bacterial infections” (S.S. Steiner, Inc., priority 2004, dated 2013):
In brackets after ≈: the same amount, converted by molar mass.

Columns and labels:
Assay in all cases: minimum inhibitory concentration (MIC) method
Format in all cases: cell-based
[1] = tested on: S. saprophyticus; conditions: Staphylococcus saprophyticus; exp 1; 37° C. 24 hours; read-out: MIC, agent alone
Method: Another method of determining antimicrobial activity is to assess the Minimum inhibitory concentration (MIC) of the composition under test. […] Thereafter, increased concentrations will have a limiting effect on growth, until the concentration is reached where no growth relative to the control is observed. That point of no growth is the minimum inhibitory concentration. […] A positive control with the bacterium alone was prepared as well as an ethanol control. The tubes were incubated at 37° C. for 24 hours and growth of the bacterium was determined by observing the change in turbidity. […] Since the filing of the original application Ser. […] Pseudomonas fluorescens, Pseudomonas aeruginosa, Proteus vulgaris, Serratia marcescens, Proteus mirabilis and Enterobacter clocae.

[2] = tested on: B. subtilis; conditions: 37° C. 24 hours
Method: (§1) Another method of determining antimicrobial activity is to assess the Minimum inhibitory concentration (MIC) of the composition under test. […] Thereafter, increased concentrations will have a limiting effect on growth, until the concentration is reached where no growth relative to the control is observed. That point of no growth is the minimum inhibitory concentration. […] A positive control with the bacterium alone was prepared as well as an ethanol control. The tubes were incubated at 37° C. for 24 hours and growth of the bacterium was determined by observing the change in turbidity.

[3] = tested on: B. megaterium; conditions: 37° C. 24 hours
Method: as §1

[4] = tested on: S. salivarius; conditions: 37° C. 24 hours
Method: as §1

MIC [1]: 1 to 10 µg/mL (≈ 2.82 to 28.2 µM)
MIC ([2]; Bacillus subtilis, exp 1, read-out: MIC, agent alone): > 1 µg/mL
MIC, agent alone ([2]; exp 1): >1 µg/mL
MIC, agent alone ([2]; exp 2): >1 µg/mL
MIC ([3]; Priestia megaterium, exp 2, read-out: MIC, agent alone): 10 µg/mL (≈ 28.2 µM)
MIC, agent alone ([3]; exp 1): 10 µg/mL (≈ 28.2 µM)
MIC ([4]; Streptococcus salivarius, exp 1, read-out: MIC, agent alone): < 10 µg/mL
MIC, agent alone ([4]; exp 2): <10 µg/mL
Compound: COc1cc(O)c(CC=C(C)C)c(O)c1C(=O)/C=C/c1ccc(O)cc1 [X, xanthohumol]
